Laboratory results: patent publication US20110045004A1, “METHOD FOR IN-VITRO DETECTING PATHOGENIC T HELPER CELLS AND PHARMACEUTICAL COMPOSITIONS FOR TREATING AUTOIMMUNE DISEASES” (DEUTCHES RHEUMA-FORSCHUNGSZENTRUM BERLIN, priority 2007, published 2011)

How the values were obtained:
[1] = test system: twist1 mRNA in 4-w-old Th1 cells; test: twist1 mRNA (RT PCR) in restimulated 4-w-old Th1 cells with inhibitors or single stimuli; type: cell-based, murine; conditions: for PMA/ionomycin mediated up-regulation of twist1 mRNA expression: 4-w-old Th1 cells restimulated 3 h with PMA/ionomycin and IL-2, serial dilutions of inhibitor (FIG. 2B); for induction of twist1 expression by stimulus alone: 4-w-old Th1 cells restimulated 3 h in the presence of IL-2 (FIG. 2C)
Protocol: (§1) Lymphocytes were cultured in complete RPMI1640 (Invitrogen) supplemented with 10% heat-inactivated fetal calf serum, 100 units/ml penicillin, 0.1 mg/ml streptomycin and 10 μM β-mercaptoethanol. Naïve CD4+CD62L+ lymphocytes from 6-8 w old DO11.10 mice were isolated as described. Irradiated (30 Gy) BALB/c splenocytes were used as APCs at a ratio of 5:1. The cognate peptide ova323-339 (R. Volkmer-Engert, Humboldt University of Berlin, Germany) was added at 0.5 μM. Alternatively, plates were coated with 3 μg/ml anti-CD3 (145-2C11) in PBS, and CD4+ cells were plated at a density of 2×10^6 cells/ml in medium plus 1 μg/ml soluble anti-CD28 (37.51). For Th1 differentiation, cells were stimulated in the presence of 5 ng/ml recombinant murine IL-12 (R&D Systems) and 5 μg/ml anti-IL-4 antibody (11B11). For Th2 differentiation, cells were stimulated in the presence of murine IL-4 (100 ng/ml, culture supernatant of HEK293T cells transfected with an expression plasmid, encoding murine IL-4), 5 μg/ml anti-IL-12 antibody (C17.8.6) and anti-IFN-γ antibody (AN18.17.24). Dead cells were removed by Ficoll-Histopaque separation. Every 6 d viable Th cells were harvested and restimulated under the original conditions, except that 10 ng/ml murine IL-2 (R&D Systems) was added.
Cells were re-stimulated with 10 ng/ml PMA, and 1 μg/ml ionomycin. Alternatively, cells were re-stimulated with plate-bound anti-CD3 (10 μg/ml), and soluble anti-CD28 ([…]). For re-stimulation of murine T cells, 10 ng/ml IL-2 was added. For intracellular staining of cytokines, T cells were stimulated for 2 h with PMA/ionomycin and additional 3 h with 5 μg/ml of brefeldin A to block the secretion of cytokines. Cells were fixed with 2% formaldehyde in PBS for 15 min at room temperature and permeabilized with 0.5% w/v saponin.
(§2) Total RNA was prepared using NucleoSpin RNA II (Macherey-Nagel) or RNeasy kit (Qiagen). […] For the normalization of murine and human cDNA the transcripts for the housekeeping genes hypoxanthine guanine phosphoribosyl transferase (HPRT) and ubiquitin ligase H5 (UbCH5) were quantified, respectively. Data were evaluated using Lightcycler software. Relative expression was calculated as follows: Et^ΔCp target gene (reference-sample)/EhΔCp housekeeping gene (reference-sample), where Cp represents the crossing point and E represents the reaction efficiency, determined by serial dilution of DNA.
(A) Comparison of the genomic sequence of the murine and the human proximal twist1 promoter (−150 to −100). […] The binding of NFAT1 (D) and the NF-κB subunit p65 (E) to the proximal promoter of twist1 was analyzed by chromatin immunoprecipitation (ChIP). […] The immunoprecipitated DNA was quantified by RT PCR using primers specific for the proximal promoter. […]

[2] = test system: Rag-deficient mice, intestine; test: Transfer colitis model with Hop shRNA transduced Th1 cells; type: in vivo, murine; conditions: Th1 cells transduced with shRNA transferred into Rag-deficient mice (FIG. 12)
From the text: To assess the functional role of hop we used a T cell dependent model of inflammatory bowel disease. In this model, T cells are transferred into Rag-deficient or SCID mice lacking T and B cells. In this model, the transferred T cells react against the intestinal bacterial flora leading to inflammation in the intestine. For the analysis of the function of Hop we inhibited the expression of Hop by shRNA-mediated knock-down. Polyclonally activated Th1 cells transduced with a retroviral vector encoding a Hop-specific shRNA or a control shRNA were transferred into Rag-deficient mice. […] The transfer of control Th1 cells lead to severe inflammation of the intestine with strong infiltration of inflammatory cells and a complete loss of the intestinal architecture.

[3] = test system: twist1 mRNA in DO11.10 Th cells; test: twist1 mRNA induction by Th1-polarizing signals in DO11.10 Th cells; type: cell-based, murine; conditions: for induction of twist1 expression by polarizing signal: CD62Lhi DO11.10 Th cells stimulated 5 d, then 3 h PMA/ionomycin and IL-2, IFN-γ tested in the absence of IL-12 (FIG. 3A)
Protocol: as §1, §2
Twist1 mRNA of Th cells activated for 3 h with PMA/ionomycin and IL-2 was quantified by RT PCR (A-D). […] Twist1 transcripts were quantified on d 11. […]

Q: `O=C(Nc1ccc(-n2nc(C(F)(F)F)cc2C(F)(F)F)cc1)c1ccc(Cl)cc1` [BTP1] was tested. Which “PMA/ionomycin mediated up-regulation of twist1 mRNA expression” value [1] did it give?
A: The value was “blocked the PMA/ionomycin mediated up-regulation of twist1 mRNA expression in a dose-dependent fashion”.

Q: How did the “PMA/ionomycin mediated up-regulation of twist1 mRNA expression” value [1] turn out when `S=C(S)N1CCCC1` [PDTC, pyrrolidine dithiocarbamate] was run?
A: The value was “blocked the PMA/ionomycin mediated up-regulation of twist1 mRNA expression in a dose-dependent fashion”.

Q: `CCCCCCCCCCCCCC(=O)O[C@@H]1[C@@H](C)[C@@]2(O)[C@@H](C=C(CO)C[C@]3(O)C(=O)C(C)=C[C@@H]23)[C@@H]2C(C)(C)[C@]12OC(C)=O` [PMA] was tested. Which “induction of twist1 expression by stimulus alone” value [1] did it give?
A: Its value is “did not induce twist1 expression”.

Q: Which “clinical signs of inflammation, histological analysis of the intestine” value [2] does the source give for “Hop-specific shRNA: retroviral vector encoded shRNA against Hop, target sequence SEQ ID NO. 40, whole shRNA SEQ ID NO. 41 (TGCAGATCTGTTACGGACTATTCAAGAGATAGTCCGTAACAGATCTGCTTTTTTC)” here?
A: The value was “strongly reduced clinical signs of inflammation”.

Q: For “IFN-γ: cytokine added in the absence of IL-12, 10 ng/ml”, which “induction of twist1 expression by polarizing signal” value [3] is on record?
A: Its value is “did not induce twist1 expression”.

Q: Which “induction of twist1 expression by stimulus alone” value [1] does the source give for TNF-α here?
A: The value was “did not induce twist1 expression”.

B1: IL-12: recombinant murine IL-12, Th1-polarizing signal (protein, UniProt P43431 23-215; P43432 23-335, looked up)
Interleukin-12 subunit alpha: RVIPVSGPARCLSQSRNLLKTTDDMVKTAREKLKHYSCTAEDIDHEDITRDQTSTLKTCLPLELHKNESCLATRETSSTTRGSCLPPQKTSLMMTLCLGSIYEDLKMYQTEFQAINAALQNHNHQQIILDKGMLVAIDELMQSLNHNGETLRQKPPVGEADPYRVKMKLCILLHAFSTRVVTINRVMGYLSSA
Interleukin-12 subunit beta: MWELEKDVYVVEVDWTPDAPGETVNLTCDTPEEDDITWTSDQRHGVIGSGKTLTITVKEFLDAGQYTCHKGGETLSHSHLLLHKKENGIWSTEILKNFKNKTFLKCEAPNYSGRFTCSWLVQRNMDLKFNIKSSSSSPDSRAVTCGMASLSAEKVTLDQRDYEKYSVSCQEDVTCPTAEETLPIELALEARQQNKYENYSTSFFIRDIIKPDPPKNLQMKPLKNSQVEVSWEYPDSWSTPHSYFSLKFFVRIQRKKEKMKETEEGCNQKGAFLVEKTSTEVQCKGGNVCVQAQDRYYNSSCSKWACVPCRVRS
Q: With B1 as the molecule, how does the “induction of twist1 expression by polarizing signal” value [3] read?
A: The value was “induced twist1 expression in a dose-dependent fashion”.

Q: What about the “increase of TCR activation-dependent twist1 expression over one week stimulated Th1 cells” value ([3]; Th1 cells polarized one week with IL-12, reactivated another week in the presence of IL-12 (FIG. 3D)) of the same molecule?
A: The value was 16 fold.
